Assay results published in PMC2924402, “Insights into the Mechanism of Ligand Binding to Octopine Dehydrogenase from Pecten maximus by NMR and Crystallography” (PLoS ONE, 2010).
Blank lines part the entries; values can stand above or below the molecule they belong to.

How the values were obtained:
[1] = target: T1, Octopine dehydrogenase (OcDH) (Pecten maximus, UniProt Q9BHM6); test: X-ray crystal structure ([…] Å, soak) of OcDH/NADH/agmatine; Ki from enzyme inhibition (Lineweaver-Burk); format: biochemical
T1 construct: gene odh1; OcDH-His5, residues 2–404 in the model
T1 sequence (Q9BHM6 1-399): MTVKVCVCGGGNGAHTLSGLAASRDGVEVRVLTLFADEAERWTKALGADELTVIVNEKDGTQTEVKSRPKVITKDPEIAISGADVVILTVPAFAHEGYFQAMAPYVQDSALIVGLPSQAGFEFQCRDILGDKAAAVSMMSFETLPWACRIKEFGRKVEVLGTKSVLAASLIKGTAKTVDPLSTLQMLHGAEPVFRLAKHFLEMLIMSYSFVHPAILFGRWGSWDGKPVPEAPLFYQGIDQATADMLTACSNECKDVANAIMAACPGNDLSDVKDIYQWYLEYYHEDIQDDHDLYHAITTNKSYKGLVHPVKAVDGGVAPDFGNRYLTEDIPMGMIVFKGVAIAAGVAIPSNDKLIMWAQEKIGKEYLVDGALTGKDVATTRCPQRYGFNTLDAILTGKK

[2] = target: T2, Octopine dehydrogenase (OcDH) (Pecten maximus, UniProt Q9BHM6); test: 1H-15N TROSY-HSQC NMR titration of OcDH saturated with […] NADH; format: binding
T2 construct: gene odh1; OcDH-His5, U-[15N] labeled

[3] = target: T2, Octopine dehydrogenase (OcDH); test: 1H-15N TROSY-HSQC NMR titration; format: binding
[4] = target: T2, Octopine dehydrogenase (OcDH); test: 1H-15N TROSY-HSQC NMR titration; also present in the OcDH/NADH/agmatine crystal structure; format: binding

Compound: N=C(N)NCCCCN [agmatine]
Ki [1]: 40000 ± 2000 µM

Compound: N=C(N)NCCC[C@H](N)C(=O)O [L-arginine]
Kd [2]: 4100 ± 310 µM

Kd [3]: 400 ± 50 µM
Compound: NC(=O)c1ccc[n+]([C@@H]2O[C@H](COP(=O)([O-])OP(=O)(O)OC[C@H]3O[C@@H](n4cnc5c(N)ncnc54)[C@H](O)[C@@H]3O)[C@@H](O)[C@H]2O)c1 [NAD^+]

Kd [4]: 62 ± 7 µM
Compound: NC(=O)C1=CN([C@@H]2O[C@H](COP(=O)(O)OP(=O)(O)OC[C@H]3O[C@@H](n4cnc5c(N)ncnc54)[C@H](O)[C@@H]3O)[C@@H](O)[C@H]2O)C=CC1 [NADH]
